Where a name gives a salt, the structure may show the parent alone. Bounds are passed on as bounds.

The first experiment addresses Recombinant human full length SYK protein (Homo sapiens (Human), UniProt P43405). Briefly: SYK kinase assay (33P ATP incorporation into biotinylated peptide). The format is biochemical. The conditions noted are these: ATP 20 μM. The method, then: This assay is performed in 96-well format for IC50 determination with 8 samples which represented 10 half log dilutions and a 40 μL reaction volume. […] Phosphorylated products were detected upon termination of reactions with EDTA and the addition of Streptavidin coated beads.
Assay plates: 96-well MultiScreen 0.65 um filter plates (Millipore Cat. No.: MADVNOB10)
final concentration: 50 mM HEPES pH7.5
BSA: Bovine Serum Albumin Fraction V, fatty acid free (Roche Diagnostics GmbH, Cat. No. 9100221) diluted to a final concentration of 0.1%
Assay Dilution Buffer (ADB): 50 mM HEPES, 0.1 mM EGTA, 0.1 mM Na Vanadate, 0.1 mM β-glycerophosphate, 10 mM MgCl2, 1 mM DTT, 0.1% BSA, pH 7.5
Bead wash buffer: 10 g/L PBS (Phosphate buffered saline) with 2M NaCl+1% phosphoric acid.
Turning to `Cc1cc(NC(=O)c2csc3cnc(N[C@@H]4CCCC[C@@H]4N)nc23)cc2cccnc12` [Compound 2, 2-((1R,2S)-2-Amino-cyclohexylamino)-thieno[3,2-d]pyrimidine-7-carboxylic acid (8-methyl-quinolin-6-yl)-amide], the IC50 (in general, the concentration that gives 50% inhibition) is under 0.001 µM.

A further experiment has as its system B-cell lymphocytes (CD20+) in human whole blood, CD69 up-regulation. Briefly: B Cell CD69 Up-Regulation Assay in Human Whole Blood. The conditions noted are these: goat anti-human IgM 50 μg/ml stimulation for 20 hrs, CD69hi CD20+ B cells, read-out: HWB, IC50. The format is cell-based. Here is the method: B Cell CD69 Up-Regulation Assay in Human Whole Blood
Human Blood was collected from healthy volunteers into Vacutainers (BD Biosciences, San Jose, Calif.) containing sodium heparin. Test compound was suspended in DMSO and nine half-log serial dilutions were made. The concentration of DMSO in the assay was 0.5%. […] whole blood was pre-incubated with compound for 30 min and then stimulated with goat anti-human IgM (50 μg/ml, Southern Biotech) for 20 hrs. At the end of the 20 hour incubation, samples were incubated with fluorochrome-conjugated antibodies, PE mouse anti-human CD20 and APC Mouse anti-human CD69 (BD Biosciences), for 30 minutes. Samples were then lysed with Lyse solution (BD) and washed with PBS containing 2% fetal bovine serum (FBS). Fluorescent signals were acquired on flow cytometer LSR II (BD) and data were analyzed by Flow Jo. The percentage of activated (CD69hi) B-cell lymphocytes (CD20+) were determined using un-stimulated (negative control) and stimulated (positive control) wells as reference guidelines. The percentage inhibition was calculated and an IC50 curve was constructed using Xfit in Microsoft Excel with sigmoidal curve fitting.
On to `Cc1cc(NC(=O)c2csc3cnc(N[C@@H]4CCCC[C@@H]4N)nc23)cc2cccnc12` [Compound 2, 2-((1R,2S)-2-Amino-cyclohexylamino)-thieno[3,2-d]pyrimidine-7-carboxylic acid (8-methyl-quinolin-6-yl)-amide], for which the IC50 stood at 0.19 µM.

Consider `Cn1cnc2c(NC(=O)c3csc4cnc(N[C@@H]5CCOC[C@@H]5N)nc34)cccc21` [Compound 11, 2-((3R,4R)-3-Amino-tetrahydro-pyran-4-ylamino)-thieno[3,2-d]pyrimidine-7-carboxylic acid (1-methyl-1H-benzoimidazol-4-yl)-amide hydrochloride], for which the IC50 came out at 1.44 µM.

As to `Cc1cc(C)nc(NC(=O)c2csc3cnc(N[C@@H]4CCOC[C@@H]4N)nc23)c1` [Compound 24, 2-((3R,4R)-3-Amino-tetrahydro-pyran-4-ylamino)-thieno[3,2-d]pyrimidine-7-carboxylic acid (4,6-dimethyl-pyridin-2-yl)-amide], the IC50 came out at 1.53 µM.

On to `N[C@H]1COCC[C@H]1Nc1ncc2scc(C(=O)Nc3ccc4ccccc4c3)c2n1` [Compound 16, 2-((3R,4R)-3-Amino-tetrahydro-pyran-4-ylamino)-thieno[3,2-d]pyrimidine-7-carboxylic acid naphthalen-2-ylamide], for which the IC50 is 3.73 µM.

In the case of `CCc1cc(NC(=O)c2csc3cnc(N[C@@H]4CCCC[C@@H]4N)nc23)cc2cccnc12` [Compound 3, 2-((1R,2S)-2-Amino-cyclohexylamino)-thieno[3,2-d]pyrimidine-7-carboxylic acid (8-ethyl-quinolin-6-yl)-amide], the IC50 was 0.76 µM.

For the compound `CCc1cccc(NC(=O)c2csc3cnc(N[C@@H]4CCOC[C@@H]4N)nc23)n1` [Compound 1, 2-((3R,4R)-3-Amino-tetrahydro-pyran-4-ylamino)-thieno[3,2-d]pyrimidine-7-carboxylic acid (6-ethyl-pyridin-2-yl)-amide], the IC50 was 5.38 µM.

For `N[C@H]1CCCC[C@H]1Nc1ncc2scc(C(=O)Nc3nc4ccccc4[nH]3)c2n1` [Compound 9, 2-((1R,2S)-2-Amino-cyclohexylamino)-thieno[3,2-d]pyrimidine-7-carboxylic acid (1H-benzoimidazol-2-yl)-amide], the concentration for half-maximal inhibition (IC50) is 50 µM.

In the case of `N[C@H]1COCC[C@H]1Nc1ncc2scc(C(=O)Nc3cnn4cccnc34)c2n1` [Compound 22, 2-((3R,4R)-3-Amino-tetrahydro-pyran-4-ylamino)-thieno[3,2-d]pyrimidine-7-carboxylic acid pyrazolo[1,5-a]pyrimidin-3-ylamide], the IC50 amounted to 0.92 µM.

Turning to `Cc1nc(NC(=O)c2csc3cnc(N[C@@H]4CCCC[C@@H]4N)nc23)ccc1C#N` [Compound 4, 2-((1R,2S)-2-Amino-cyclohexylamino)-thieno[3,2-d]pyrimidine-7-carboxylic acid (5-cyano-6-methyl-pyridin-2-yl)-amide], the IC50 worked out at 50 µM.

`Cc1ccc(NC(=O)c2csc3cnc(N[C@@H]4CCOC[C@@H]4N)nc23)cc1` [Compound 18, 2-((3R,4R)-3-Amino-tetrahydro-pyran-4-ylamino)-thieno[3,2-d]pyrimidine-7-carboxylic acid p-tolylamide]: the IC50 stood at 12.2 µM.

On to `N[C@H]1CCCC[C@H]1Nc1ncc2scc(C(=O)Nc3ccc4cnccc4n3)c2n1` [Compound 7, 2-((1R,2S)-2-Amino-cyclohexylamino)-thieno[3,2-d]pyrimidine-7-carboxylic acid [1,6]naphthyridin-2-ylamide], for which the IC50 was determined as 0.55 µM.

In the case of `Cn1nc(NC(=O)c2csc3cnc(N[C@@H]4CCCC[C@@H]4N)nc23)c2ccc(F)cc21` [Compound 15, 2-((1R,2S)-2-Amino-cyclohexylamino)-thieno[3,2-d]pyrimidine-7-carboxylic acid (6-fluoro-1-methyl-1H-indazol-3-yl)-amide trifluoroacetate], the IC50 worked out at 50 µM.

On to `Cn1cnc2c(NC(=O)c3csc4cnc(NCCN)nc34)cccc21` [Compound 12, 2-(2-Amino-ethylamino)-thieno[3,2-d]pyrimidine-7-carboxylic acid (1-methyl-1H-benzoimidazol-4-yl)-amide trifluoroacetate], for which the IC50 amounted to 3.06 µM.

With `Cn1ccc(NC(=O)c2csc3cnc(N[C@@H]4CCOC[C@@H]4N)nc23)n1` [Compound 19, 2-((3R,4R)-3-Amino-tetrahydro-pyran-4-ylamino)-thieno[3,2-d]pyrimidine-7-carboxylic acid (1-methyl-1H-pyrazol-3-yl)-amide], the IC50 is 10.7 µM.

Turning to `N[C@H]1COCC[C@H]1Nc1ncc2scc(C(=O)Nc3cnc4cccnn34)c2n1` [Compound 23, 2-((3R,4R)-3-Amino-tetrahydro-pyran-4-ylamino)-thieno[3,2-d]pyrimidine-7-carboxylic acid imidazo[1,2-b]pyridazin-3-ylamide], the IC50 came out at 1.36 µM.

For the compound `Cn1cc(NC(=O)c2csc3cnc(N[C@@H]4CCOC[C@@H]4N)nc23)cn1` [Compound 21, 2-((3R,4R)-3-Amino-tetrahydro-pyran-4-ylamino)-thieno[3,2-d]pyrimidine-7-carboxylic acid (1-methyl-1H-pyrazol-4-yl)-amide], the IC50 was 5.8 µM.

`N[C@H]1CCCC[C@H]1Nc1ncc2scc(C(=O)Nc3nc4ccccc4s3)c2n1` [Compound 8, 2-((1R,2S)-2-Amino-cyclohexylamino)-thieno[3,2-d]pyrimidine-7-carboxylic acid benzothiazol-2-ylamide]: the IC50 worked out at 50 µM.

Take `N[C@H]1CCCC[C@H]1Nc1ncc2scc(C(=O)Nc3ccc4ncccc4n3)c2n1` [Compound 10, 2-((1R,2S)-2-Amino-cyclohexylamino)-thieno[3,2-d]pyrimidine-7-carboxylic acid [1,5]naphthyridin-2-ylamide]: the IC50 turned out to be 3.74 µM.

In the case of `N[C@H]1COCC[C@H]1Nc1ncc2scc(C(=O)Nc3cccc(-n4nccn4)n3)c2n1` [Compound 5, 2-((3R,4R)-3-Amino-tetrahydro-pyran-4-ylamino)-thieno[3,2-d]pyrimidine-7-carboxylic acid (6-[1,2,3]triazol-2-yl-pyridin-2-yl)-amide], the IC50 is 3.79 µM.

Consider `Cc1ccc(NC(=O)c2csc3cnc(N[C@@H]4CCOC[C@@H]4N)nc23)nc1C` [Compound 25, 2-((3R,4R)-3-Amino-tetrahydro-pyran-4-ylamino)-thieno[3,2-d]pyrimidine-7-carboxylic acid (5,6-dimethyl-pyridin-2-yl)-amide], for which the IC50 stood at 1.67 µM.

Turning to `N[C@H]1COCC[C@H]1Nc1ncc2scc(C(=O)Nc3cccc(-n4ccnn4)n3)c2n1` [Compound 6, 2-((3R,4R)-3-Amino-tetrahydro-pyran-4-ylamino)-thieno[3,2-d]pyrimidine-7-carboxylic acid (6-[1,2,3]triazol-1-yl-pyridin-2-yl)-amide], the IC50 amounted to 4.29 µM.

Source of the values: patent US9701691B2, “Thienopyrimidine compounds” (Hoffmann-La Roche Inc., priority 2012, dated 2017).
